Columns and labels:
[1] = powdered form, room temperature; cited from earlier work
[2] = contact with blood; cited from earlier work
[3] = Toxic dose of local anesthetics on intravascular absorption; conditions: inferred from immediate hydrolysis on contact with blood
Excerpt: Short duration local anesthetics are generally used in 1%-2% concentrations. Current applications for short duration local anesthetics are dictated by toxicity; these toxicities vary by drug. […] Intravascular injection or a toxic dosage carries the risk of potential complications such as cardiac arrhythmias or seizures.
Total dose is adjusted to the specific purpose for the local anesthetic administration.

[4] = cited from earlier work
[5] = cited from earlier work; for major nerve block duration: reportedly
[6] = with or without epinephrine; cited from earlier work

| SMILES | stability [1] | metabolism in blood [2] | actual toxic dose [3] | motor blockade ([4]; 0.2% concentration) | neurotoxicity ([4]; 0.2% concentration) | toxic concentration ([4]; applied directly to nerve structures) | major nerve block duration [5] | analgesic duration ([5]; transversus abdominis plane (TAP) block, 30-35 ml per side, abdominal procedures) | toxic dose [6] |
| --- | --- | --- | --- | --- | --- | --- | --- | --- | --- |
| CCCCNc1ccc(C(=O)OCCN(C)C)cc1 [tetracaine] | stable at room temperature | immediately metabolized in contact with blood | higher than 5 mg/kg | minimal motor blockade | not neurotoxic | 1% | – | – | – |
| CCCCN1CCCCC1C(=O)Nc1c(C)cccc1C (stereo not shown) [bupivacaine] | – | – | – | – | – | – | three to twelve | 12 to 16 h | 2.5 mg per kg |
| CCCN(CC)C(CC)C(=O)Nc1c(C)cccc1C (stereo not shown) [etidocaine] | – | – | – | – | – | – | three to twelve | – | – |
